In article PMC3839082 (Proteins, 2011) one finds IC50 data, which are given here for one compound.

Structures are written as SMILES.

The IC50 is the concentration that gives 50% inhibition. The low end stands for greater potency in that assay, the high end for weaker potency in that assay.

The experiment concerns the target hCINAP (Homo sapiens, UniProt Q9Y3D8). Description: coupled PK/LDH adenylate kinase assay. The class given is biochemical.

Chain of hCINAP (Q9Y3D8 whole entry): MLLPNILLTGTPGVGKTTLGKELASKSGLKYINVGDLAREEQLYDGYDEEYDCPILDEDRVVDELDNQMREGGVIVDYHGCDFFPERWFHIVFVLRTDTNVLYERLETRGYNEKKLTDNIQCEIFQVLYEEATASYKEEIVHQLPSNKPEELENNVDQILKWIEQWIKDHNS

As to `Nc1ncnc2c1ncn2[C@@H]1O[C@H](COP(=O)(O)OP(=O)(O)OP(=O)(O)OP(=O)(O)OP(=O)(O)OC[C@H]2O[C@@H](n3cnc4c(N)ncnc43)[C@H](O)[C@@H]2O)[C@@H](O)[C@H]1O` [AP5A], the half-inhibitory concentration (IC50) turned out to be 27 ± 2.93 nM.
